Results taken from paper PMC7851395 (British Journal of Cancer, 2020).

Assays:
[1] = test system: PC-9 cells; experiment: MTT cytotoxicity assay, PC-9 cells; assay type: cell-based; details: Homo sapiens, PC-9, 48 h, PC-9 cells, 48 h, MTT; read-out: IC50
Protocol: (§1) The cytotoxicity and viability of human NSCLC cells and normal cells were determined by MTT assay. MTT assay was performed as described previously.[22] MTT assay was used to determine the cell cytotoxicity and viability in human NSCLC cells. Cells (5 × 10^3 cells/well) were plated in 96-well plates and attached overnight. After the proper treatment, the MTT solution was added at 25 µL/well and incubated at 37 °C for 4 h. The formazan crystals were dissolved in 150 µL of DMSO, and the optical density (OD) was measured using a Microplate Reader at 490 nm. The cell viability was calculated by the following formula: viability = (average OD values of treatment wells/average OD values of vehicle control wells) × 100%. And half-maximal inhibitory concentration (IC50) values were determined by GraphPad Pro Prism 7.0.

[2] = test system: A549 cells; experiment: MTT cytotoxicity assay, A549 cells; assay type: cell-based; details: Homo sapiens; A549 cells, 48 h, MTT; read-out: IC50
Protocol: as §1

[3] = test system: H460 cells; experiment: MTT cytotoxicity assay, H460 cells; assay type: cell-based; details: Homo sapiens, NCI-H460; H460 cells, 48 h, MTT; read-out: IC50
Protocol: as §1

[4] = test system: normal lung cells BEAS-2B; experiment: MTT cytotoxicity assay, normal lung cells BEAS-2B; assay type: cell-based, human
Protocol: as §1

[5] = test system: NIH mice; experiment: Acute toxicity test; assay type: in vivo
Protocol: In the acute toxicity test, 30 NIH mice (female, 8 weeks old) were randomly divided into three groups (n = 10), including vehicle group, bufalin group (30 mg/kg) and acetyl-bufalin group (30 mg/kg). The three groups received intraperitoneal injection only on the first day. All the mice were housed under 12 h light–dark cycles at 25 °C and free for water and diet. […] All the mice were sacrificed by cervical dislocation.

[6] = test system: caspase-3; experiment: Caspase-3 activity assay; assay type: cell-based; details: human NSCLC cells (H460, PC-9), 24 h
Protocol: The caspase-3 assay was performed as described previously.[23] According to the manufacturer’s protocol, the activity of caspase‐3 was evaluated by using a caspase‐3 colorimetric assay kit (Abcam, Cambridge, UK). H460 and PC-9 cells were collected and resuspended in lysis buffer. After incubation on ice for 10 min, the cell lysate was centrifuged at 12,000 rpm for 10 min at 4 °C, and the protein concentration in the supernatants was measured using the Bradford dye method. The supernatants were incubated with a reaction buffer containing 200 µM devd-p-nitroanilide, for caspase‐3 in a caspase assay buffer at 37 °C with 10 mM dithiothreitol for 2 h. The activity of caspase-3 was determined by measuring the absorbance at 405 nm. Each experiment was done in triplicate for three independent experiments.

[7] = test system: P-CDK9, CDK9, P-STAT3 and S2 RNAPII; experiment: Western blot of CDK9/STAT3 pathway proteins; assay type: cell-based, human; details: H460 and PC-9 cells, 12 h; acetyl-bufalin 25-200 nM, SNS-032 200 nM
Protocol: Tissue proteins were extracted with tissue protein lysate buffer. Cells were grown to different densities and extracted with cell protein lysate buffer. The protein was mixed with loading buffer and boiled for 10 min at 100 °C, then loaded and separated by 10% or 12% sodium dodecyl sulfate-polyacrylamide gel (SDS-PAGE) and then transferred onto a PVDF membrane blocking with 5% skim milk. The blots were incubated overnight with specific primary antibodies at 4 °C. On the second day, after washing with TBST (a mixture of tris-buffered saline (TBS) and Tween 20) three times, the […] membranes were incubated with horseradish peroxidase-conjugated secondary antibodies for 1 h. The immunoreactive bands were visualised with enhanced chemiluminescence reagent.

[8] = test system: H460 and PC-9 cells; experiment: Cell proliferation in cells transfected with CDK9 siRNA or control siRNA; assay type: cell-based, human
Protocol: as §1
The siRNA targeting human CDK9 was purchased from Genepharma (Shanghai, China) with the following sequence: siCDK9-1: 5′-[…] TT-3′, siCDK9-2: 5′-[…]-3′, siCDK9-3: 5′-[…]-3′. Cells were transfected with 50 nM siRNA using Lipofectamine 3000 (Invitrogen, CA, USA) for 48 h.

[9] = test system: patient-derived human NSCLC xenografts; experiment: Patient-derived NSCLC xenograft (PDX) model; assay type: in vivo, mice; details: for average tumour volume: 14 days, vehicle 931.90 mm^3
Protocol: For the patient-derived human NSCLC xenografts (PDXs) animal model, four pairs of lung cancer samples were obtained from patients who had undergone surgical treatment of lung cancer in the First Affiliated Hospital of Wenzhou Medical University. Fresh tumour tissue was sterilely incised into ~3-mm^3 pieces and subcutaneously injected into immunodeficient NOD/SCID mice within 30 min. The remaining tumour tissues were stored at −80 °C. When the tumours have successfully engrafted, tumour samples were removed and passaged into the third generation of nude mice for the following studies. All 18 mice were allocated into three groups (n = 6) and received i.p. injection of acetyl-bufalin (1 mg/kg/2 days and 2 mg/kg/2 days) as compared with mice injected with PBS (vehicle group) every other day. Tumour volume was measured as V = (L × W × W)/2, in which L and W represent the length and width of tumour. After 14 days, all the mice were killed by cervical dislocation. The tumours, hearts, livers, kidneys and lungs were removed for use in the histology and western blot analysis.

CC(=O)OC1CCC2(C)C(CCC3C2CCC2(C)C(c4ccc(=O)oc4)CCC32O)C1 (centres unmarked) [acetyl-bufalin]
IC50 [1]: 64 nM
IC50 [2]: 28.1 nM
IC50 [3]: 27.8 nM
cytotoxic effect on normal cells [4]: low toxicity
weight of the remaining mice ([5]; 30 mg/kg single i.p., 14 days, compared with vehicle): stable
mortality (mice died) ([5]; 30 mg/kg single intraperitoneal injection, observed 14 days, n = 10): 2/10
BAX expression and caspase-3 activity [6]: dose-dependently increased
P-CDK9, CDK9, P-STAT3 and S2 RNAPII expressions [7]: significantly dose-dependently decreased
cell proliferation of siCDK9 cells ([8]; H460 and PC-9 transfected with CDK9 siRNA1, 48 h): did not significantly affect
cell proliferation of control siRNA cells ([8]; H460 and PC-9 transfected with control siRNA, 48 h): hampered cell proliferation
average tumour volume ([9]; 1 mg/kg per 2 days i.p.): 544.43 mm^3
average tumour volume ([9]; 2 mg/kg per 2 days i.p.): 256.29 mm^3
body weight of the mice ([9]; 1 and 2 mg/kg per 2 days i.p.): stable
gross toxicities on heart, liver, kidney and lung ([9]; H&E staining, compared with vehicle): no gross toxicities
